US4665085A, “Amidines, preparation process and therapeutical application thereof” (Laboratoires Chauvin-Blache, priority 1983, dated 1987)
pIC50: −log10 of the molar value. Each block holds one compound with its values, some of them ahead of it.

Legend:
male New-Zealand rabbits = test: Hypotensive activity in rabbits after topical administration (intraocular pressure); type: in vivo; settings: rabbit; for effect on pressure in the contralateral eye (evidence of an action at the level of the central nervous system): same experimental conditions (topical instillation); for t (time corresponding to the maximum effect) / Δmax (maximum decrease of the intraocular pressure with respect to the basic value at time zero) / Duration of the effect: 0.5% isotonic aqueous solution instilled in an eye
Protocol: 2. Hypotensive activity in rabbits, after topical administration
The experiments were conducted using male New-Zealand rabbits (2 kg body weight) given "ad libitum" food and drink.
The animals are given a few days to get accustomed to the animal house, are conditioned to stabling in restraining boxes, and to the ocular pressure determinations, in order to prevent pressure deviations induced by stress and handling.
The intraocular pressure is determined with an ALCON aplanation pneumatonograph, standardized by means of an isolated cornea of rabbit, under water pressure.
The compounds are tested in isotonic aqueous solution, at pH 7.25 μl of an 0.5% solution are instilled in an eye, and the intraocular pressure is determined as a function of time.
Table below gives the maximum decrease of the intraocular pressure (Δ max) with respect to the basic value at time zero (time of instillation), the time corresponding to this maximum effect (t), and the total duration of the effect.

[1] = target: T1, platelet α2 adrenergic receptors (Oryctolagus cuniculus, UniProt Q5ZQK3); test: Affinity for platelet α2 adrenergic receptors (inhibition of specific linking of tritiated dihydroergocryptine); type: binding; settings: rabbit platelet membranes, tritiated DHE 7 nM, 30 minutes at 25° C.; read-out: CE50 (dosage required to inhibit 50 percent of the linking of tritiated DHE)
T1 construct: from tissue; host or cells: platelet membranes from blood of male New Zealand albino rabbits
T1 sequence (Q5ZQK3 1-451): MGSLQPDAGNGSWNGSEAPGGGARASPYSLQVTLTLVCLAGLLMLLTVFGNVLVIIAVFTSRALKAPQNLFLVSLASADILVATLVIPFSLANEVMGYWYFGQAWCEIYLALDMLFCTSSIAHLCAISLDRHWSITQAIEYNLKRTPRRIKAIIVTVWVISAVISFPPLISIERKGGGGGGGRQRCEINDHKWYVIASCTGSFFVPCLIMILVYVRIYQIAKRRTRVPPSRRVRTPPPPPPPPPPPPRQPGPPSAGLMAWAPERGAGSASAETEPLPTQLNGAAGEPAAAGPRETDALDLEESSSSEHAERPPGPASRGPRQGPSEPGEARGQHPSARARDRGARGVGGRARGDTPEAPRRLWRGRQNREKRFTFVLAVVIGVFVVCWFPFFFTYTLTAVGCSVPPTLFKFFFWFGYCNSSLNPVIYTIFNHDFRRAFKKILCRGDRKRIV
Protocol: 1. Affinity for platelet α2 adrenergic receptors
The compounds of the formula (I) were tested on the platelet adrenergic receptor of rabbit which is exclusively of α2 type (MICHEL T., Nature, 288, (5792) 709, 1980).
The affinity of said compounds for the α2 receptors is determined by measuring the inhibition of the specific linking of tritiated dihydroergocryptine (DHE) by the test compounds.
The rabbits used are male New-Zealand albino rabbits
Blood is taken by the intracardiac route, over ACD (an anticoagulant consisting of an aqueous solution containing 0.27 g citric acid, 0.5 g trisodium citrate and 0.02 g glucose per 20 ml water) at a rate of 1 volume ACD per 6 volumes blood.
The blood is centrifuged 10 minutes at 280 g and the supernatant (PRP) is collected. The PRP is centrifuged 15 minutes at 2000 g.
The platelet sediment is washed twice with buffer I (Tris 50 mM, NaCl 150 mM, EDTA 20 mM, pH 7.5) and is then re-suspended in buffer II (Tris 50 mM, EDTA 5 mM, pH 7.5).
This suspension is frozen at -40° C., and is then defrosted; the procedure is repeated twice. The suspension is then homogenized, after which it is centrifuged 10 minutes at 40,000 g, at 4° C.
The centrifugation sediment is washed with buffer II and is then re-suspended in this same buffer so that the final protein concentration is of the order of 1.5 mg/ml.
The inhibition tests are effected in a final volume of 0.2 ml of buffer II containing the tritiated DHE (7 nM) and varying concentrations of test compound.
The reaction is initiated by adding 0.2 mg proteins and is continued for 30 minutes at 25° C.
The incubation is terminated by adding 2 ml buffer II and by rapidly filtering this mixture in vacuo, through Whatman GF/C filters. The filters are rapidly washed with buffer II and the radioactivity bound to the filter is determined by liquid scintillation.
The dosage required to inhibit 50 percent of the linking of the […] DHE (CE50) is calculated for each of the test compounds.

[2] = tested on: male Swiss mice (NMRI-Han); test: Acute toxicity by the intraperitoneal route; type: in vivo; settings: observation time 48 hours
Protocol: The mice used are male Swiss mice (NMRI-Han) with an average body weight of 25 g.
The acute toxicity investigation was effected by the intraperitoneal route.
The compounds were injected in aqueous solution, at three dosage levels: 50, 100 and 200 mg/kg.
Table below gives the results obtained with compounds of the formula (I), after an observation time of 48 hours.
The results are expressed as number of dead animals vs. the total number of animals treated.

SMILES: Clc1cccc(Cl)c1C=NNC1=NCCN1 [(2,6-dichlorobenzylidene-hydrazino)-2-imidazoline, reference compound]
effect on pressure in the contralateral eye (evidence of an action at the level of the central nervous system) (male New-Zealand rabbits): concomitant decrease of the pressure in the contralateral eye

pIC50 [1]: 5.89
SMILES: COc1cc(O)ccc1C(C)=NNC(=N)N [Compound 11]

SMILES: Cc1cc(O)ccc1C=NNC(=N)N [Compound 7]
pIC50 [1]: 5.20 | number of dead animals vs. total number of animals treated ([2]; 100 mg/kg): 0/3 | number of dead animals vs. total number of animals treated ([2]; 200 mg/kg): 3/3 | t (time corresponding to the maximum effect) (male New-Zealand rabbits): 60 mn | Δmax (maximum decrease of the intraocular pressure with respect to the basic value at time zero) (male New-Zealand rabbits): -0.25 ± 1.7 mm Hg

SMILES: Cc1cc(N)ccc1C=NNC1=NCCN1 [Compound 2]
pIC50 [1]: 5.00 | number of dead animals vs. total number of animals treated ([2]; 100 mg/kg): 0/3 | number of dead animals vs. total number of animals treated ([2]; 200 mg/kg): 3/3 | Duration of the effect (male New-Zealand rabbits): 300 mn | t (time corresponding to the maximum effect) (male New-Zealand rabbits): 60 mn | Δmax (maximum decrease of the intraocular pressure with respect to the basic value at time zero) (male New-Zealand rabbits): -4.12 ± 0.95 mm Hg

SMILES: Clc1cccc(Cl)c1N=C1NCCN1 [clonidine, 2,6-dichloro-anilino-2-imidazoline, reference compound]
effect on pressure in the contralateral eye (evidence of an action at the level of the central nervous system) (male New-Zealand rabbits): concomitant decrease of the pressure in the contralateral eye

SMILES: COc1cc(O)ccc1C=NNC1=NCCN1 [Compound 4]
pIC50 [1]: 5.52 | number of dead animals vs. total number of animals treated ([2]; 100 mg/kg): 0/3 | number of dead animals vs. total number of animals treated ([2]; 200 mg/kg): 0/3 | Duration of the effect (male New-Zealand rabbits): 400 mn | t (time corresponding to the maximum effect) (male New-Zealand rabbits): 60 mn | Δmax (maximum decrease of the intraocular pressure with respect to the basic value at time zero) (male New-Zealand rabbits): -2.5 ± 0.57 mm Hg

SMILES: COc1cc(N)ccc1C=NNC1=NCCN1 [Compound 5]
pIC50 [1]: 4.85 | number of dead animals vs. total number of animals treated ([2]; 100 mg/kg): 0/3 | Duration of the effect (male New-Zealand rabbits): 360 mn | t (time corresponding to the maximum effect) (male New-Zealand rabbits): 120 mn | Δmax (maximum decrease of the intraocular pressure with respect to the basic value at time zero) (male New-Zealand rabbits): -3.9 ± 0.5 mm Hg

pIC50 [1]: 5.60
SMILES: COc1cc(O)ccc1C(C)=NNC1=NCCN1 [Compound 6]

SMILES: Cc1cc(N)ccc1C=NNC(=N)N [Compound 8]
pIC50 [1]: 4.49 | number of dead animals vs. total number of animals treated ([2]; 100 mg/kg): 0/3 | number of dead animals vs. total number of animals treated ([2]; 200 mg/kg): 3/3

SMILES: CC(=NNC1=NCCN1)c1ccc(O)cc1C [Compound 3]
pIC50 [1]: 5.25 | number of dead animals vs. total number of animals treated ([2]; 100 mg/kg): 0/3 | number of dead animals vs. total number of animals treated ([2]; 200 mg/kg): 3/3 | Duration of the effect (male New-Zealand rabbits): 300 mn | t (time corresponding to the maximum effect) (male New-Zealand rabbits): 30 mn | Δmax (maximum decrease of the intraocular pressure with respect to the basic value at time zero) (male New-Zealand rabbits): -1.83 ± 1 mm Hg

SMILES: Cc1cc(O)ccc1C=NNC1=NCCN1 [Compound 1]
pIC50 [1]: 5.52 | number of dead animals vs. total number of animals treated ([2]; 100 mg/kg): 0/3 | number of dead animals vs. total number of animals treated ([2]; 200 mg/kg): 0/3 | Duration of the effect (male New-Zealand rabbits): 360 mn | t (time corresponding to the maximum effect) (male New-Zealand rabbits): 60 mn | Δmax (maximum decrease of the intraocular pressure with respect to the basic value at time zero) (male New-Zealand rabbits): -3.12 ± 2.21 mm Hg

SMILES: COc1cc(O)ccc1C=NNC(=N)N [Compound 9]
pIC50 [1]: 5.10 | number of dead animals vs. total number of animals treated ([2]; 50 mg/kg): 0/3 | number of dead animals vs. total number of animals treated ([2]; 100 mg/kg): 3/3 | number of dead animals vs. total number of animals treated ([2]; 200 mg/kg): 3/3

SMILES: CC(=NNC(=N)N)c1ccc(O)cc1C [Compound 10]
pIC50 [1]: 4.96 | number of dead animals vs. total number of animals treated ([2]; 100 mg/kg): 0/3 | number of dead animals vs. total number of animals treated ([2]; 200 mg/kg): 2/3
